Among the data in ChEMBL document CHEMBL1201862, “PubChem BioAssay data set” (2004) are EC50, IC50 and AC50 values, retold here.

Assay [1] is described as follows: NIH-3T3 fibroblast cytotoxicity, dose response, cytotoxicity control, cell-based, fluorescence, Alamar Blue, secondary assay (AID 2327).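 Further: NIH-3T3 mouse fibroblasts cultured with fluconazole at 8 µg/mL.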 It counts as functional. Background: The colour change of resazurin is a common sign of viable cells or microbes.
Assay [2] is described as follows: inhibitors of firefly luciferase expression or activity, dose response, H4 neuroglioma cells, luminescence (AID 1990). It counts as functional, cell-based.
Assay [3] is described as follows: luciferase reporter signal reduction – luminescence, H4-C neuroglioblastoma cells, dose response (AID 2458).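 Further: H4 neuroglioblastoma cells stably carrying a luciferase reporter gene fusion.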 It counts as functional, cell-based. On the technique in general: Reporter assays use an easily measured gene product as a stand-in for the process of interest.
The next assay is described as follows: cells. Type of assay: functional, cell-based.
A short description of assay [4]: inhibitors of SNCA 5'UTR-driven reporter translation, confirmation, H4 neuroglioma cells, luminescence (AID 1988). Type of assay: functional, cell-based.
Assay [5] can be described thus: C. albicans growth with fluconazole, confirmation, fluorescence, retest (AID 2467). Type of assay: functional, cell-based.
For assay [6], the target named is Serine/threonine-protein phosphatase (Candida dubliniensis (strain CD36 / CBS 7987 / NCPF 3949 / NRRLY-17841) (Yeast), UniProt B9W6M3). Briefly: calcineurin pathway inhibitors in yeast reporter, dose response, S. cerevisiae, CDRE-lacZ, luminescence, secondary (AID 2388).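 Further: yeast reporter cells carrying a calcineurin-responsive lacZ construct stimulated with calcium chloride; luminescent beta-galactosidase reporter signal in whole cells rather than isolated phosphatase activity; potency for inhibition where a drop in reporter signal means calcineurin blockade.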 It counts as functional, cell-based.
Serine/threonine-protein phosphatase, sequence (B9W6M3 whole entry): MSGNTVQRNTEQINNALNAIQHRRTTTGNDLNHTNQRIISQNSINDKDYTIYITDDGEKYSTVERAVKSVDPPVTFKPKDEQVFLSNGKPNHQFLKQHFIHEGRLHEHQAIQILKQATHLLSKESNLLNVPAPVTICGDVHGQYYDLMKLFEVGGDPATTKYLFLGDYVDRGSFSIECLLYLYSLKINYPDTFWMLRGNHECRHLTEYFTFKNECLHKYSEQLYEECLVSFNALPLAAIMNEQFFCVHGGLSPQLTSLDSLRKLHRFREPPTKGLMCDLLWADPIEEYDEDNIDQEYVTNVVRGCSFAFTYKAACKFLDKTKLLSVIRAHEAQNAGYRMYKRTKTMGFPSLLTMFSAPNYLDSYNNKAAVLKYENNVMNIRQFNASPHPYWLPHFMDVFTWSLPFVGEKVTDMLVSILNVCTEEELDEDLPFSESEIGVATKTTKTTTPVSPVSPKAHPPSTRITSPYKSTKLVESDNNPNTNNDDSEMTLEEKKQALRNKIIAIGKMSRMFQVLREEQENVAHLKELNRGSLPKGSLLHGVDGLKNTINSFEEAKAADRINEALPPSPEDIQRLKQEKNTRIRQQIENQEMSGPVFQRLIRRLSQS
The nature of assay [7]: inhibitors of SNCA 5'UTR-driven translation, confirmation, luminescence, H4 neuroglioblastoma cells, dose confirmation (AID 2454).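 Further: H4 neuroglioblastoma cells carrying an alpha-synuclein 5'UTR luciferase reporter; potency for inhibition of the luciferase signal.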 Type of assay: functional, cell-based.
For another assay, the target named is Exodeoxyribonuclease V (Escherichia coli (strain K12), UniProt P04993+P07648+P08394). Briefly: E. coli RecBCD inhibitors, dose response, counter-screen for AddAB inhibitor project, absorbance, V66 E. coli, mutant T4 phage (AID 492957). Type of assay: functional, cell-based, Escherichia coli str. K-12 substr. MG1655. (The purpose of a counterscreen is to sort out artefacts and off-target activity.)

Assay [8] has as its target Intestinal-type alkaline phosphatase (Mus musculus, UniProt P24822). As to the kind of experiment: PubChem AID 488874. It counts as functional.
Assay [9] concerns the target T1, Intestinal-type alkaline phosphatase (Homo sapiens, UniProt P09923). Briefly: human intestinal alkaline phosphatase activators, dose response, biochemical, luminescence, uHTS hits (AID 463120). It counts as functional.
For assay [10], the target named is T1, Intestinal-type alkaline phosphatase. As to the kind of experiment: human IAP activators, dose response, biochemical, luminescent, uHTS hits, set 2 (AID 488817).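 Further: potency of activators that raise enzyme activity.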 Type of assay: functional.
Assay [11] concerns the target T2, Alkaline phosphatase, tissue-nonspecific isozyme (Homo sapiens, UniProt P05186).
T2 sequence (P05186 whole entry): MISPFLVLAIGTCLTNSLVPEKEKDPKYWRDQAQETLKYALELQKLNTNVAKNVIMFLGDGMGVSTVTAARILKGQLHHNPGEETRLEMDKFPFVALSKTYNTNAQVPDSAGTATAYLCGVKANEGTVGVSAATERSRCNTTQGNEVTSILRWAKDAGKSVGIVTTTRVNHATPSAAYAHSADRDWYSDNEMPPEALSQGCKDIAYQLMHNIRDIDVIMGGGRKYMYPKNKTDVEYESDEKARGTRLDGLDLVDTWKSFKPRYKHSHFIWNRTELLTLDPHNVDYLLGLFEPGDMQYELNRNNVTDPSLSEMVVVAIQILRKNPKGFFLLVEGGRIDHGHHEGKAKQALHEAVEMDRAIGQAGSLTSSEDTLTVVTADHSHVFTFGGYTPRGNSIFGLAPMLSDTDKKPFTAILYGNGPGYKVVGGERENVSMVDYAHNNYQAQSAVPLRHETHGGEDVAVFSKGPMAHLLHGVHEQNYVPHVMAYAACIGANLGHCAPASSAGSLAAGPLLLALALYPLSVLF
As to the kind of experiment: TNAP enzyme activators, dose response, selectivity assay for human IAP activator project, biochemical, TNAP isozyme, human IAP uHTS hits (AID 488886).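 Further: potency of compounds raising TNAP activity as a selectivity check on IAP activators.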 It counts as functional.

Assay [12] is described as follows: Counterscreen for AddAB inhibitors: absorbance-based bacterial cell-based high throughput dose response assay for inhibitors of bacterial viability. [Related pubchem assays (depositor defined):AID435030, AID449728, AID449731, AID488942, AID488955, AID488956]. Type of assay: functional.
The test system of a further assay is INS1. Briefly: beta cell apoptosis inhibitors, cytokine rescue, dose response, luminescence, retest (AID 449756).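 Further: cell death triggered by IL-1 beta plus TNF-alpha plus IFN-gamma mixture; protective hits raise ATP signal compared with cytokine alone wells.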 It counts as functional, cell-based. As to conditions: Rattus norvegicus.
Assay [13] addresses ATP-dependent molecular chaperone HSP82 (Candida albicans (strain WO-1) (Yeast), UniProt C4YTQ8). Briefly: loss of DOC-induced GRE-beta-galactosidase reporter signal, dose response, Hsp90 inhibitor project, S. cerevisiae, luminescence (AID 2400).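 Further: beta-galactosidase luminescence from glucocorticoid response element reporter as proxy for Hsp90 function; inhibitor potency where signal loss means Hsp90 inhibition.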 Type of assay: functional, cell-based.
For assay [14], the system named is HEK293. Briefly: cytotoxicity in HEK293T NF-kB-Luc cells, SAR follow-up, cytotoxicity control for NF-kB activator project, cell-based, resazurin fluorescence (AID 493251). Type of assay: functional.
In a further assay the test system is Jurkat. As to the kind of experiment: SAR Analysis of small molecule inhibitors of T-cell specific antigen receptor-induced NF-kB activation in a Jurkat cell line using a luminescence assay - Set 2. [Related pubchem assays (depositor defined):AID435003, AID435012, AID465]. It counts as functional, cell-based. As to conditions: Homo sapiens.
In assay [15] the test system is HEK293. Briefly: SAR Analysis of small molecule inhibitors of T-cell specific antigen receptor-induced NF-kB activation in a HEK-293T cell line using a luminescence assay - Set 2. [Related pubchem assays (depositor defined):AID435003, AID435012, AID489026]. It counts as functional, cell-based. As to conditions: Homo sapiens.
In assay [16] the test system is HEK293. As to the kind of experiment: PMA/Ionomycin induced NF-kB luciferase assay in 293- NF-kB-Luc stable cells. [Related pubchem assays: 1299, 1270, 1295, 1375, 1287, 1281, 1293, 1291, 1289, 1280, 465, 1364, 1282, 1372, 1365, 1370, 1367, 1366, 1269, 1373, 1292, 1290, 1302, 1371, 1283, 1271, 1294, 1374, 1368, 1369 ]. It counts as functional, cell-based. The settings on record: Homo sapiens.

For assay [17], the target named is Luciferin 4-monooxygenase (Photinus pyralis, UniProt P08659). Briefly: In vitro luciferase assay using purified luciferase. [Related pubchem assays: 1299, 1270, 1295, 1375, 1287, 1281, 1293, 1291, 1289, 1280, 465, 1364, 1282, 1372, 1365, 1370, 1367, 1366, 1266, 1373, 1292, 1290, 1302, 1371, 1283, 1271, 1294, 1374, 1368, 1369 ].
Luciferin 4-monooxygenase, sequence (P08659 whole entry): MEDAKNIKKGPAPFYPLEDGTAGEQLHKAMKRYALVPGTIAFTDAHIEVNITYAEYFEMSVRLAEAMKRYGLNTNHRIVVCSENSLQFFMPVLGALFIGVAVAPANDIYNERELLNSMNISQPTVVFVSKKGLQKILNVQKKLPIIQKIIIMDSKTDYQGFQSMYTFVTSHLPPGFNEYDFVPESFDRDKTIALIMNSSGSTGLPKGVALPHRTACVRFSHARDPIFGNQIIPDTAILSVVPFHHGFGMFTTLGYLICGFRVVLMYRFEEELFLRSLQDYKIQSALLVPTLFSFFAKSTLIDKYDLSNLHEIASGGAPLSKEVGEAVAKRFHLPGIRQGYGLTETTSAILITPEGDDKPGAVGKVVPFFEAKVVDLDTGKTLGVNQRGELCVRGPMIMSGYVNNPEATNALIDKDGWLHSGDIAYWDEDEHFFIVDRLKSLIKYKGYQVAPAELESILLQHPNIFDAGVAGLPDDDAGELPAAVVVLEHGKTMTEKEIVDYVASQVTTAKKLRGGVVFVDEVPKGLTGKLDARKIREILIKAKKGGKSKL
Assay [18] relates to HEK293. Briefly: Cytotoxicity assay in HEK293 cells. [Related pubchem assays (depositor defined):AID1266, AID1269, AID1270, AID1271, AID1280, AID1281, AID1282, AID1283, AID1287, AID1289, AID1290, AID1291, AID1292, AID1293, AID1294, AID1295, AID1299, AID1302, AID1364, AID1365, AID1366, AID1367, AID1369, AID1370, AID1371, AID1372, AID1373, AID1374, AID1375, AID1384 …. As to conditions: Homo sapiens. Type of assay: functional, cell-based.

A short description of assay [19]: cytotoxicity in HEK-293T cells, dose response, cytotoxicity control for BCR NF-kB inhibitor project, luminescence, B-cell screen hits (AID 489021).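 Further: HEK-293T cells carrying an NF-kB luciferase reporter; cells exposed to compound for about 14 hours before viability readout.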 Type of assay: functional, cell-based.
Assay [20] deals with HEK293. Briefly: inhibitors of LMP1-driven NF-kB reporter, dose response, cell-based, HEK293, luciferase, cherry-pick (AID 588343). As to conditions: Homo sapiens. Type of assay: functional.
In the next assay the test system is HeLa. As to the kind of experiment: HeLa cell cytotoxicity, dose response, cytotoxicity control for MITF activator project, CellTiter-Glo luminescence, cherry-pick samples (AID 540259). It counts as functional, cell-based. The settings on record: Homo sapiens.

Each structure is given as a SMILES string. Calls of active or inactive are those of the source.

T1 sequence (P09923 whole entry): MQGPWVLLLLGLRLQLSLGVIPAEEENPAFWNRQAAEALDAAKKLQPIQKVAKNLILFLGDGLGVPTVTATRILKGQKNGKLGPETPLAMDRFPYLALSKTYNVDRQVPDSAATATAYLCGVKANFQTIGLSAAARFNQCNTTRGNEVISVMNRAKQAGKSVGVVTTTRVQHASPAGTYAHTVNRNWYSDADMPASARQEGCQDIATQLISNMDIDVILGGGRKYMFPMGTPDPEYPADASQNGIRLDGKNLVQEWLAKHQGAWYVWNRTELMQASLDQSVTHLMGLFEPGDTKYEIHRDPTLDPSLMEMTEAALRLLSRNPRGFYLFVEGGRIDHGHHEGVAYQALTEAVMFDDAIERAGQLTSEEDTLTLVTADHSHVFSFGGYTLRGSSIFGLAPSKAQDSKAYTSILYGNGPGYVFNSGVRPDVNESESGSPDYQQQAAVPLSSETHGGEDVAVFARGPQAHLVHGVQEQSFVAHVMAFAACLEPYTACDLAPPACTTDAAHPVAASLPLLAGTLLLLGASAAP
ATP-dependent molecular chaperone HSP82, sequence (C4YTQ8 whole entry): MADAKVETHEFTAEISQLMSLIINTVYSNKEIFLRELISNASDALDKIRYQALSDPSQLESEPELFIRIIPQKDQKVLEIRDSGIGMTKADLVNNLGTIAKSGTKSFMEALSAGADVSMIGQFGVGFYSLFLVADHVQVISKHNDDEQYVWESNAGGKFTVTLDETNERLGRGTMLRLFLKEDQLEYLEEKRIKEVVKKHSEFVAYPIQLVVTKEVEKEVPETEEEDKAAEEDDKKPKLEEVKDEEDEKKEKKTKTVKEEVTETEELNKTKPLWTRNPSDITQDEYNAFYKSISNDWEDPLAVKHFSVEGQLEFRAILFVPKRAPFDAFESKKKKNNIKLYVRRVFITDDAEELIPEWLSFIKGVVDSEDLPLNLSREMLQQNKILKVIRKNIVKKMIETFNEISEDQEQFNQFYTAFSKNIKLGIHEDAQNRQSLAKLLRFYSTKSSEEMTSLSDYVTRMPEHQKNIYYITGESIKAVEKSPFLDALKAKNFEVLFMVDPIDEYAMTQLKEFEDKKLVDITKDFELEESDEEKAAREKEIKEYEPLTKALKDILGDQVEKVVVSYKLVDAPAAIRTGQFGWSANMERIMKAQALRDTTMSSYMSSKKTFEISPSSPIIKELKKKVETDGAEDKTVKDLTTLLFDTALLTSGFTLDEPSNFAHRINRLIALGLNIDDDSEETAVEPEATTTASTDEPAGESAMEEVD
Intestinal-type alkaline phosphatase (Mus musculus, UniProt P24822), sequence (P24822 whole entry): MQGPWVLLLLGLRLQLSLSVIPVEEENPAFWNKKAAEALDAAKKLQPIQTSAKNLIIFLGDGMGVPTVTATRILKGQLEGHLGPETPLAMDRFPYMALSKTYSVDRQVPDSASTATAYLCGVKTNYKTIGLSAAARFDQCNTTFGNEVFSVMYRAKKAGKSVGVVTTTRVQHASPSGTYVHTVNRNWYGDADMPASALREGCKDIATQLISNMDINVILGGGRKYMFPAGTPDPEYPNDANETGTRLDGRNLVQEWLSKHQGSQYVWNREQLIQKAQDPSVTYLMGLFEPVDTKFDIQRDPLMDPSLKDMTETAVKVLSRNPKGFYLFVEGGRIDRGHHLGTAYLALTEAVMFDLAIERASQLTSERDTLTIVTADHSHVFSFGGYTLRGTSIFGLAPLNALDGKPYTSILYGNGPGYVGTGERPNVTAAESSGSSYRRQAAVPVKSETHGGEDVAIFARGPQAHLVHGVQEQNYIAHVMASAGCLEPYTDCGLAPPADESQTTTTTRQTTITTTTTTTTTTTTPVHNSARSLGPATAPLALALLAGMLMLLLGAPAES

By EC50 is commonly meant the concentration that produces a half-maximal response. As usually defined, the IC50 is the concentration that inhibits the measured activity by half. In general, AC50 refers to the concentration at which the activity in the assay is half-maximal. On to `O=c1c2ccccc2nc(N/N=C/c2c(O)ccc3ccccc23)n1O`, for which the EC50 is > 150 µM (inactive) in [1]; < 0.1 µM (active) in [2]; 0.601 µM (active) in assay [3]; 1.26 µM (active) in the assay “cells”; < 0.1 µM (active) in assay [4]; 0.212 µM (active) in [5]. Further, the EC50 was > 180 µM (inactive) in assay [6]; > 12 µM (inconclusive) in assay [7]; 13.6 µM (active) in assay [9]; 31 µM (active) in assay [10]; > 100 µM (inactive) in assay [11]; 18.1 µM (active) in assay [13]. Further, the IC50 on Exodeoxyribonuclease V is > 119 µM (inactive); in assay [8], 75.3 µM (active); in [12], > 119 µM (inactive). In addition, the AC50 in the assay with INS1 was 1.23 µM (active).
For the compound `CCN(CC)C(=O)CCc1nc(-c2ccc(C(C)(C)C)cc2)no1`, the IC50 with HEK293 [14] (Homo sapiens, HEK293) was 54.7 µM (inactive); with HEK293 [14] (hek293) it was 51.5 µM (inactive); with Jurkat, 47.8 µM (inactive); with HEK293 [15] it was 19.7 µM (active).
For `CCOc1ccc(-c2nc(CSCC(=O)NCc3ccco3)c(C)o2)cc1`, the EC50 is 15.4 µM (not active) with HEK293 [16], > 8 µM (not active) in assay [17] and 20.3 µM (inactive) in the assay with HEK293 [18]. For the same compound, the IC50 was > 80 µM (inactive) in assay [19]; 54.4 µM (inactive) in the assay on HEK293 [14] (Homo sapiens, HEK293); 53.1 µM (inactive) in the assay with HEK293 [14] (hek293); > 79 µM (inactive) in the assay with Jurkat; 25.2 µM (inactive) in the assay on HEK293 [15]. For the same compound, in the assay with HEK293 [20], the AC50 is 32 µM (active).
`COc1ccc(NC(=O)c2ccc3[nH]c(C)c(C)c3c2)cc1`: in the assay with HeLa, the AC50 was 47.9 µM (active).
